From publication PMC8801607, “New Chitosan Polymer Scaffold Schiff Bases as Potential Cytotoxic Activity: Synthesis, Molecular Docking, and Physiochemical Characterization” (Frontiers in Chemistry, 2022)

Test system: MCF-7 cancer cell line
Assay: cells
Protocol: MCF-7 breast cell line was employed in this study. The MCF-7 cell line was pre-incubated on a micro titer plate in this technique. Each test’s results are expressed as a percentage of the treated cells’ growth relative to the untreated control cells. […] 0.1 ml of the cell suspension (containing 5 × 10^6 cells/100 µL)and 0.1 ml of the test solution (6.25–100 µg in 1% DMSO such that the final concentration of DMSO in media was less than 1%) were added to the […] and incubated at 37°C for 72 h in a 5 percent CO2 incubator. The control wells included 1 percent DMSO and cell suspension, while the blank contained simply cell suspension. After 72 h, 20 µL of MTT were added and left in the CO2 incubator for 2 h before adding 100 µL of propanol. To protect the plate from light, it was wrapped in aluminum foil. The […] were then shaken for 10–25 min in a rotary shaker. The […] were processed on an ELISA reader for absorbance at 562 nm after 10–20 min.

How did the GI50 (Homo sapiens, MCF7) turn out when COc1cccc2c1C(=O)c1c(O)c3c(c(O)c1C2=O)C[C@@](O)(C(=O)CO)C[C@@H]3O[C@H]1C[C@H](N)[C@H](O)[C@H](C)O1 [Doxorubicin] was run?
The GI50 was 40 nM.

And the “TGI (total growth of inhibition)” value (MCF-7 cell line, MTT assay, mean ± SD of three separate experiments)?
Its value is 250 ± 230 nM.
